Consider 2 molecules from US12441976B2, “Process for reducing the activity of microbial contamination in a yeast medium” (Lallemand Hungary Liquidity Management LLC, priority 2020, dated 2025).

The test system of this assay is contaminating wild-type microbial cells (obtained from a commercial plant). As to the kind of experiment: laboratory scale model: antimicrobial treatment of pasteurized corn mash, change in pH after 12 hours. Type of assay: cell-based. The method, then: A laboratory model has been developed to characterize the microbial activity of various components (in isolation and in combination). Briefly, cycloheximide and glucose are added to a pasteurized corn mash (step 010). At step 020, the pasteurized mash was supplemented with an antimicrobial composition and submitted to an acidic treatment. More specifically, at substep 021, an antimicrobial composition was added to the pasteurized mash. Then, at substep 022, contaminating wild-type microbial cells (obtained from a commercial plant) were added. Afterwards, at substep 023, the mash was submitted to an acidic treatment with sulfuric acid. The mash was held in such acidic conditions for 30 minutes at 33° C. (step 030). A base was then added to the acidic mash to increase the pH of the mixture (to a level suitable for the growth and metabolic activity of yeasts, step 040). The neutralized mash obtained after step 040 was maintained at 12 hours at 33° C. (step 050). Step 050 was used to allow, if any, the bacterial growth to measure the antimicrobial efficiency of the different treatments. At step 060, the pH and the presence of different metabolites (using HPLC) were determined.

On to `O=CO` [formate], for which the “inhibition, in words” value (organic acid alone, 0.1% w/v, pH 3.2) was “greater inhibition than acetate or D/L lactate only”.

As for nisin, the “antimicrobial effectiveness, in words” value (100 ppm nisin added after the pH was raised to 5.5) is “more effective than adding nisin as a part of the antimicrobial blend”.
